Consider 23 molecules from US20080200454A1, “CARBON-LINKED TETRAHYDRO-PYRAZOLO-PYRIDINE MODULATORS OF CATHEPSIN S” (priority 2007, published 2008).

For orientation: IC50 means the concentration at which inhibition is half-maximal.

Structures are written as SMILES.

Chain of Recombinant human cathepsin S (CatS) (P25774 115-331): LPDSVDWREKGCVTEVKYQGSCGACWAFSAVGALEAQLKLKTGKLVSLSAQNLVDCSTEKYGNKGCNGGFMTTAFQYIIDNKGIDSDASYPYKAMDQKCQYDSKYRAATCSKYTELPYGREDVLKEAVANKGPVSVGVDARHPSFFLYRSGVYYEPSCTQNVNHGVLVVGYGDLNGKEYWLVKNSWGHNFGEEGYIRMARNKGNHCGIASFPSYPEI

This assay has as its target Recombinant human cathepsin S (CatS) (Homo sapiens, UniProt P25774). Put plainly: Recombinant human cathepsin S (CatS) inhibition assay, fluorogenic substrate Z-Valine-Valine-Arginine-AMC.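 Also: Baculovirus-expressed CatS in pH 5.0 sodium acetate buffer with DTT and NaCl, fluorescence read each minute over 20 min, inhibition derived from rate slope.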
For the molecule `CC1CCCN(CCCCc2cc(-c3nn(CCCN4CCC(N5CCCC5=O)CC4)c4c3CN(S(C)(=O)=O)CC4)ccc2Cl)C1` (centres unmarked) [Example 111, 1-{1-[3-(3-{4-Chloro-3-[4-(3-methyl-piperidin-1-yl)-butyl]-phenyl}-5-methanesulfonyl-4,5,6,7-tetrahydro-pyrazolo[4,3-c]pyridin-1-yl)-propyl]-piperidin-4-yl}-pyrrolidin-2-one], the 50% inhibitory concentration (IC50) is 2040 nM.

Regarding `CN1CCN(CCCCc2cc(-c3nn(CCCN4CCC(N5CCCC5=O)CC4)c4c3CN(S(C)(=O)=O)CC4)ccc2Cl)CC1` [Example 112, 1-{1-[3-(3-{4-Chloro-3-[4-(4-methyl-piperazin-1-yl)-butyl]-phenyl}-5-methanesulfonyl-4,5,6,7-tetrahydro-pyrazolo[4,3-c]pyridin-1-yl)-propyl]-piperidin-4-yl}-pyrrolidin-2-one], the half-inhibitory concentration (IC50) is 4920 nM.

For the molecule `CS(=O)(=O)N1CCc2c(c(-c3ccc(Cl)c(CCCCN4CCOCC4)c3)nn2CCCN2CCC(N3CCCC3=O)CC2)C1` [Example 113, 1-[1-(3-{3-[4-Chloro-3-(4-morpholin-4-yl-butyl)-phenyl]-5-methanesulfonyl-4,5,6,7-tetrahydro-pyrazolo[4,3-c]pyridin-1-yl}-propyl)-piperidin-4-yl]-pyrrolidin-2-one], the IC50 amounted to 3580 nM.

On to `CS(=O)(=O)N1CCc2c(c(-c3ccc(Cl)c(CCCCN4CCCCCC4)c3)nn2CCCN2CCC(N3CCCC3=O)CC2)C1` [Example 114, 1-[1-(3-{3-[3-(4-Azepan-1-yl-butyl)-4-chloro-phenyl]-5-methanesulfonyl-4,5,6,7-tetrahydro-pyrazolo[4,3-c]pyridin-1-yl}-propyl)-piperidin-4-yl]-pyrrolidin-2-one], for which the IC50 amounted to 1520 nM.

Consider `CS(=O)(=O)N1CCc2c(c(-c3ccc(Cl)c(CCCCNC4CCCC4)c3)nn2CCCN2CCC(N3CCCC3=O)CC2)C1` [Example 115, 1-[1-(3-{3-[4-Chloro-3-(4-cyclopentylamino-butyl)-phenyl]-5-methanesulfonyl-4,5,6,7-tetrahydro-pyrazolo[4,3-c]pyridin-1-yl}-propyl)-piperidin-4-yl]-pyrrolidin-2-one], for which the IC50 stood at 1690 nM.

Take `CS(=O)(=O)N1CCc2c(c(-c3ccc(C(F)(F)F)c(C#Cc4ccc(Cl)cc4)c3)nn2CC(O)CN2CCC(N3CCCC3=O)CC2)C1` (centres unmarked) [Example 116, 1-[1-(3-{3-[3-(4-Chloro-phenylethynyl)-4-trifluoromethyl-phenyl]-5-methanesulfonyl-4,5,6,7-tetrahydro-pyrazolo[4,3-c]pyridin-1-yl}-2-hydroxy-propyl)-piperidin-4-yl]-pyrrolidin-2-one]: the concentration for half-maximal inhibition (IC50) amounted to 40 nM.

Regarding `COC(=O)C1CCN(CC(O)Cn2nc(-c3ccc(C(F)(F)F)c(C#Cc4ccc(Cl)cc4)c3)c3c2CCN(S(C)(=O)=O)C3)CC1` (centres unmarked) [Example 117, 1-(3-{3-[3-(4-Chloro-phenylethynyl)-4-trifluoromethyl-phenyl]-5-methanesulfonyl-4,5,6,7-tetrahydro-pyrazolo[4,3-c]pyridin-1-yl}-2-hydroxy-propyl)-piperidine-4-carboxylic acid methyl ester], the IC50 worked out at 40 nM.

Take `CS(=O)(=O)N1CCc2c(c(-c3ccc(C(F)(F)F)c(C#Cc4ccc(Cl)cc4)c3)nn2CC(O)CN2CCC(C(N)=O)CC2)C1` (centres unmarked) [Example 119, 1-(3-{3-[3-(4-Chloro-phenylethynyl)-4-trifluoromethyl-phenyl]-5-methanesulfonyl-4,5,6,7-tetrahydro-pyrazolo[4,3-c]pyridin-1-yl}-2-hydroxy-propyl)-piperidine-4-carboxylic acid amide]: the IC50 was determined as 60 nM.

For `CN(C)c1ccc2c(n1)n(C1CCN(CC(O)Cn3nc(-c4ccc(C(F)(F)F)c(C#Cc5ccc(Cl)cc5)c4)c4c3CCN(S(C)(=O)=O)C4)CC1)c(=O)n2C` (centres unmarked) [Example 120, 3-[1-(3-{3-[3-(4-Chloro-phenylethynyl)-4-trifluoromethyl-phenyl]-5-methanesulfonyl-4,5,6,7-tetrahydro-pyrazolo[4,3-c]pyridin-1-yl}-2-hydroxy-propyl)-piperidin-4-yl]-5-dimethylamino-1-methyl-1,3-dihydro-imidazo[4,5-b]pyridin-2-one], the IC50 came out at 30 nM.

Consider `CC(C)(C)OC(=O)NC1CCN(CC(O)Cn2nc(-c3ccc(C(F)(F)F)c(C#Cc4ccc(Cl)cc4)c3)c3c2CCN(S(C)(=O)=O)C3)CC1` (centres unmarked) [Example 121, [1-(3-{3-[3-(4-Chloro-phenylethynyl)-4-trifluoromethyl-phenyl]-5-methanesulfonyl-4,5,6,7-tetrahydro-pyrazolo[4,3-c]pyridin-1-yl}-2-hydroxy-propyl)-piperidin-4-yl]-carbamic acid tert-butyl ester], for which the IC50 was found to be 150 nM.

On to `CS(=O)(=O)N1CCc2c(c(-c3ccc(C(F)(F)F)c(C#Cc4ccc(Cl)cc4)c3)nn2CC(O)CN2CCOCC2)C1` (centres unmarked) [Example 122, 1-{3-[3-(4-Chloro-phenylethynyl)-4-trifluoromethyl-phenyl]-5-methanesulfonyl-4,5,6,7-tetrahydro-pyrazolo[4,3-c]pyridin-1-yl}-3-morpholin-4-yl-propan-2-ol], for which the IC50 was 260 nM.

As to `CS(=O)(=O)N1CCc2c(c(-c3ccc(Cl)c(C#Cc4ccc(Cl)cc4)c3)nn2CC(O)CN2CCC(N3CCCC3=O)CC2)C1` (centres unmarked) [Example 123], the IC50 is 10 nM.

Take `CS(=O)(=O)N1CCc2c(c(-c3ccc(Cl)c(C#Cc4ccc(Cl)cc4)c3)nn2CC(O)CN2CCOCC2)C1` (centres unmarked) [Example 124, 1-{3-[4-Chloro-3-(4-chloro-phenylethynyl)-phenyl]-5-methanesulfonyl-4,5,6,7-tetrahydro-pyrazolo[4,3-c]pyridin-1-yl}-3-morpholin-4-yl-propan-2-ol]: the half-maximal inhibitory concentration (IC50) came out at 150 nM.

Consider `CS(=O)(=O)N1CCc2c(c(-c3ccc(Cl)c(C#Cc4ccc(Cl)cc4)c3)nn2CC(O)CN2CCCCC2)C1` (centres unmarked) [Example 125, 1-{3-[4-Chloro-3-(4-chloro-phenylethynyl)-phenyl]-5-methanesulfonyl-4,5,6,7-tetrahydro-pyrazolo[4,3-c]pyridin-1-yl}-3-piperidin-1-yl-propan-2-ol], for which the half-inhibitory concentration (IC50) is 80 nM.

Consider `CN(C)c1ccc2c(n1)n(C1CCN(CC(O)Cn3nc(-c4ccc(Cl)c(C#Cc5ccc(Cl)cc5)c4)c4c3CCN(S(C)(=O)=O)C4)CC1)c(=O)n2C` (centres unmarked) [Example 126, 3-[1-(3-{3-[4-Chloro-3-(4-chloro-phenylethynyl)-phenyl]-5-methanesulfonyl-4,5,6,7-tetrahydro-pyrazolo[4,3-c]pyridin-1-yl}-2-hydroxy-propyl)-piperidin-4-yl]-5-dimethylamino-1-methyl-1,3-dihydro-imidazo[4,5-b]pyridin-2-one], for which the IC50 worked out at 10 nM.

Turning to `COC(=O)C1CCN(CC(O)Cn2nc(-c3ccc(Cl)c(C#Cc4ccc(Cl)cc4)c3)c3c2CCN(S(C)(=O)=O)C3)CC1` (centres unmarked) [Example 127, 1-(3-{3-[4-Chloro-3-(4-chloro-phenylethynyl)-phenyl]-5-methanesulfonyl-4,5,6,7-tetrahydro-pyrazolo[4,3-c]pyridin-1-yl}-2-hydroxy-propyl)-piperidine-4-carboxylic acid methyl ester], the IC50 amounted to 20 nM.

`CS(=O)(=O)N1CCc2c(c(-c3ccc(Cl)c(C#Cc4ccc(Cl)cc4)c3)nn2CC(O)CN2CCC(C(N)=O)CC2)C1` (centres unmarked) [Example 128, 1-(3-{3-[4-Chloro-3-(4-chloro-phenylethynyl)-phenyl]-5-methanesulfonyl-4,5,6,7-tetrahydro-pyrazolo[4,3-c]pyridin-1-yl}-2-hydroxy-propyl)-piperidine-4-carboxylic acid amide]: the IC50 worked out at 110 nM.

In the case of `CS(=O)(=O)N1CCc2c(c(-c3ccc(Cl)c(C#Cc4ccc(Cl)cc4)c3)nn2CC(O)CN2CCCC2)C1` (centres unmarked) [Example 129, 1-{3-[4-Chloro-3-(4-chloro-phenylethynyl)-phenyl]-5-methanesulfonyl-4,5,6,7-tetrahydro-pyrazolo[4,3-c]pyridin-1-yl}-3-pyrrolidin-1-yl-propan-2-ol], the IC50 was 120 nM.

As for `CC(C)(C)OC(=O)NC1CCN(CC(O)Cn2nc(-c3ccc(Cl)c(C#Cc4ccc(Cl)cc4)c3)c3c2CCN(S(C)(=O)=O)C3)CC1` (centres unmarked) [Example 130, [1-(3-{3-[4-Chloro-3-(4-chloro-phenylethynyl)-phenyl]-5-methanesulfonyl-4,5,6,7-tetrahydro-pyrazolo[4,3-c]pyridin-1-yl}-2-hydroxy-propyl)-piperidin-4-yl]-carbamic acid tert-butyl ester], the half-inhibitory concentration (IC50) was determined as 80 nM.

`CC(C)(C)OC(=O)N1CCN(CC(O)Cn2nc(-c3ccc(Cl)c(C#Cc4ccc(Cl)cc4)c3)c3c2CCN(S(C)(=O)=O)C3)CC1` (centres unmarked) [Example 131, 4-(3-{3-[4-Chloro-3-(4-chloro-phenylethynyl)-phenyl]-5-methanesulfonyl-4,5,6,7-tetrahydro-pyrazolo[4,3-c]pyridin-1-yl}-2-hydroxy-propyl)-piperazine-1-carboxylic acid tert-butyl ester]: the IC50 was found to be 160 nM.

For the molecule `CS(=O)(=O)N1CCc2c(c(-c3ccc(Cl)c(C#Cc4ccc(Cl)cc4)c3)nn2CC(O)CN2CCNCC2)C1` (centres unmarked) [Example 132, 1-{3-[4-Chloro-3-(4-chloro-phenylethynyl)-phenyl]-5-methanesulfonyl-4,5,6,7-tetrahydro-pyrazolo[4,3-c]pyridin-1-yl}-3-piperazin-1-yl-propan-2-ol], the half-inhibitory concentration (IC50) is 390 nM.

For the molecule `CS(=O)(=O)N1CCc2c(c(-c3ccc(Cl)c(C#Cc4ccc(Cl)cc4)c3)nn2CC(O)CN2CCC(N)CC2)C1` (centres unmarked) [Example 133, 1-(4-Amino-piperidin-1-yl)-3-{3-[4-chloro-3-(4-chloro-phenylethynyl)-phenyl]-5-methanesulfonyl-4,5,6,7-tetrahydro-pyrazolo[4,3-c]pyridin-1-yl}-propan-2-ol], the IC50 was found to be 290 nM.

Regarding `CS(=O)(=O)N1CCc2c(c(-c3ccc(Cl)c(C#Cc4ccc5c(c4)CNCC5)c3)nn2CC(O)CN2CCCCC2)C1` (centres unmarked) [Example 134, 1-{3-[4-Chloro-3-(1,2,3,4-tetrahydro-isoquinolin-7-ylethynyl)-phenyl]-5-methanesulfonyl-4,5,6,7-tetrahydro-pyrazolo[4,3-c]pyridin-1-yl}-3-piperidin-1-yl-propan-2-ol], the IC50 amounted to 180 nM.
